# Patent publication US20200032249A1, “LABELING, ISOLATION, & ANALYSIS OF RNA FROM RARE CELL POPULATIONS” (priority 2017, published 2020)
# Tests used:
# [1] = system: MDA231 cells expressing CD/UPRT in mouse lungs; assay: Flura-seq of lung micrometastases, reads aligned to hybrid human-mouse genome; type: in vivo
# Protocol: FIG. 3 a-g. Flura-tagging of mRNA in vivo. FIG. 3a—Schematic diagram of lung colonization xenograft assay used for evaluation of Flura-tagging/Flura-seq. Athymic mice were injected through the tail vein with 50,000 MDA231 cells expressing CD/UPRT and GFP-luciferase. Upon the development of detectable bioluminescent lung metastases (4 weeks), mice were treated with doxycycline to induce CD/UPRT expression and injected with 5-FC. Lungs were harvested, and Flura-tagged mRNAs were immunopurified. FIG. 3b—Comparison of signal-to-noise ratio of Flura-tagging and TU-tagging in vivo. Mice were injected with either 5-FC or TU, the Flura-tagged or TU-tagged mRNAs were purified 12 h post injection, and the relative fold enrichment of representative human housekeeping genes relative to representative murine housekeeping genes (mHPRT1, mLDH1, mPGK1 and mGAPDH), normalized to their corresponding unpurified inputs, were measured by RT-PCR (n=5, ±S.E.). FIG. 3c—Quantification of the number of human cells in the mouse lungs used for Flura-tagging. Half of the mouse lungs used for Flura-tagging in FIG. 3b was dissociated into single cells, and the number of RFP+ cells was quantified using flow cytometry. The total number of MDA231 cells per lung was estimated based on an assumption of 1.5×10^8 cells per mouse lung (20) (n=5). […] RNA reads were aligned to a hybrid genome containing the human and mouse genomes. […]
# [2] = system: MDA231 cells; assay: stress granule formation by G3BP immunostaining; type: cell-based; details: for treatment time after which cells started to form stress granules: human
# Protocol: FIG. 2a-b. Flura-tagging has minimal cytotoxicity. FIG. 2a—Effect of Flura-tagging on stress granule formation. MDA231 cells were treated with 5-FC for the indicated times, and the formation of stress granules was detected by G3BP immunostaining. Control cells were either treated with water or sodium arsenite (Arsenite) for one hour. Arrows indicate stress granules (n=3). Scale bar=20 μM. FIG. 2b—Effect of Flura-tagging on transcription. RNA expression in control cells was compared to CD/UPRT-expressing cells treated with the indicated concentrations of 5-FC for 4 h or 12 h. Each dot represents a gene, with the outer/lighter gray dots indicating genes showing more than 2-fold differential expression, as determined by DESeq2 (n=2). The dotted line represents the four-fold cutoff mark.
# 5-FU is extensively used as a chemotherapeutic agent for the treatment of solid tumors, based on its ability to induce cancer cell death by inhibiting thymidylate synthase and by causing DNA and RNA damage (12-14). It was therefore crucial to test whether our 5-FU-tagging method, which is based on low concentrations of 5-FC and short incubation time periods, has significant cytotoxic effects under our experimental conditions. CD/UPRT-expressing cells were treated with 5-FC at concentrations of up to 250 μM for up to 12 h (“Flura-tagged” cells), and the effects of this treatment on RNA damage response and transcriptional regulation were investigated.
# A key feature of the RNA damage response is the formation of stress granules (15). Ras GTPase-activating protein-binding protein 1 (G3BP), a key component of stress granules, forms distinct foci during stress granule formation (12). We determined the dose- and time-dependent effect of 5-FC treatment on stress granule formation by immunostaining of the cells with anti-G3BP antibody. […] The 5-FC-treated cells started to form stress granules only after 24 h of treatment with 1 mM 5-FC, a concentration four times higher than the maximal concentration of 5-FC used for Flura-tagging, or after 48 h of 5-FC treatment at lower concentrations (FIG. 2a).
# Human embryonic kidney transformed with […] (293T) and human breast cancer MDA-MB-231 (MDA231) cells were cultured in DMEM High Glucose medium (Wheaton) supplemented with 10% Fetal Bovine Serum (Clontech, Catalog number 631106) supplemented with 2 mM L-Glutamine. All cell lines have been routinely tested for mycoplasma contamination. For the induction of CD or CD and UPRT, cells were treated with 1 μg/ml doxycycline for 24 h. For Fluorouracil tagging, cells were treated with 250 μM of 5-FC or 5-FU unless indicated. Where indicated, 125 μM thymine was added together with 5-FC. […]
structure (smiles),measurement,setting,value
"Nc1nc(=O)[nH]cc1F [5-FC, 5-fluorocytosine]",aligned reads mapped to human genome,[1]; mice treated for 4 h,approximately 53%
same,aligned reads mapped to human genome,[1]; mice treated for 12 h,74%
same,stress granules after 12 h,[2],did not contain stress granules
same,treatment time after which cells started to form stress granules,[2],48 h
same,treatment time after which cells started to form stress granules,[2]; 1 mM,24 h
